Measurements as given in patent US20040255720A1, “Metal graphite material and production method thereof” (AISIN SEIKI KABUSHIKI KAISHA, priority 2003, published 2004).
Like-named read-outs stand apart in the source and are kept apart here. One block for each compound: values may come before it.

What was measured:
[1] = Solubility of each carboxylic acid in 1-butanol; type: physicochemical; conditions: 20° C.
[2] = Solubility of each carboxylic acid in methanol; conditions: for solubility in methanol (Max): temperature not given
[3] = Solubilities of each carboxylic acid in water
[4] = Solubility of carboxylic acid copper in organic solvents; type: physicochemical
[5] = 20° C.
[6] = Solubility of each carboxylic acid in 1-propanol; type: physicochemical; conditions: 20° C.
[7] = Viscosity of binder chemicals; type: physicochemical; conditions: 20° C.
[8] = Thermal decomposition (temperature vs weight, FIG. 3); type: physicochemical
Procedure: FIG. 3 illustrates a graph indicating a relationship between temperature and weigh of glycerin and diglycerin.
In addition, it is preferable that the aforementioned chemicals having only a function as a binder is thermally decomposed in carbon dioxide and water when the molded body of the graphite particles is calcinated at 250-350° C. temperature, then such carbon dioxide and water evaporates into the air, in other word, no residue remains due to the thermal decomposition reaction. In such point of view, it is considered that glycerin and diglycerin as glycerin derivative being thermally decomposed at below 350° C. and having a predetermined viscosity are preferable chemicals. Viscosity of the glycerin is 1500 mPa.s at 20° C., and the thermal decomposition starts at 150° C. and finishes at 250° C. Viscosity of the diglycerin is 120 mPa.s at 20° C., and the thermal decomposition starts at 250° C. and finishes at 320° C. In response to an appropriate thickness of the coating film, glycerin or diglycerin can be diluted with methanol and mixed into the solution of carboxylic acid copper. FIG. 3 indicates relationships between temperature and weight of glycerin and diglycerin. Structure 1 indicates a molecular structure of glycerin, and structure 2 indicates a molecular structure of diglycerin. [drawing 1]

Compound: CCCCCCCCCCCC(=O)O [dodecanoic acid]
solubility in 1-butanol [1]: 83 g is dissolved in solvent 100 g | solubility in methanol ([2]; 20° C.): 120 g is dissolved in g is dissolved in methanol 100 g

Compound: COc1ccc(C(=O)O)cc1 [anisic acid]
solubility in methanol ([2]; 20° C.): 20 wt % dissolved at 20 °C

Compound: O=C(O)c1cccc(C(=O)O)c1 [isophthalic acid]
solubility in methanol (Max) [2]: Max 1.7 g is dissolved in g is dissolved in methanol 100 g

Compound: CCCCCCCCCCCC(=O)O.[Cu] [dodecanoic acid copper]
solubility in the methanol compared with butanoic acid copper [4]: lower

Compound: CCCCCCCCCCCCCC(=O)O [myristic acid]
solubility in 1-butanol [1]: 28.7 g is dissolved in solvent 100 g

Compound: O=C(O)CC(=O)O [malonic acid]
solubility in water ([3]; 30° C.): 63 g is dissolved in saturated g is dissolved in saturated solution 100 g

Compound: [Cl][Cu][Cl] [copper chloride, cupric chloride]
Solubility of copper chloride ([5]; solvent 1-butanol): 15.4 g dissolved in saturated solution 100 g at 20 °C | Solubility of copper chloride ([5]; solvent 1-propanol): 19.7 g dissolved in saturated solution 100 g at 20 °C | Solubility of copper chloride ([5]; solvent methanol): 37 g dissolved in saturated solution 100 g at 20 °C | Solubility of copper chloride ([5]; solvent water): 42.3 g dissolved in saturated solution 100 g at 20 °C

Compound: O=C(O)c1ccc(C(=O)O)c(C(=O)O)c1C(=O)O [mellophanic acid]
solubility in water ([3]; 20° C.): 20 wt % dissolved at 20 °C

Compound: O=C(O)c1cc(C(=O)O)cc(C(=O)O)c1 [trimesic acid]
solubility in methanol ([2]; 20° C.): 20 wt % dissolved at 20 °C

Compound: O=C(O)c1ccccc1O [salicylic acid]
solubility in 1-propanol [6]: 22.3 g is dissolved in saturated g is dissolved in saturated solution 100 cc

Compound: O=C(O)c1ccc(C(=O)O)cc1 [terephthalic acid]
solubility in 1-propanol [6]: 4.4 g is dissolved in saturated g is dissolved in saturated solution 100 cc | solubility in methanol (Max) [2]: Max 16.9 g is dissolved in g is dissolved in methanol 100 g

Compound: O=C(O)CCCC(=O)O [glutaric acid]
solubility in water ([3]; 30° C.): 63 g is dissolved in saturated g is dissolved in saturated solution 100 g | solubility in methanol ([2]; 20° C.): 20 wt % dissolved at 20 °C

Compound: O=C(O)c1ccccc1C(=O)O [phthalic acid]
solubility in 1-propanol [6]: 4.3 g is dissolved in saturated g is dissolved in saturated solution 100 cc | solubility in methanol (Max) [2]: Max 16.4 g is dissolved in g is dissolved in methanol 100 g

Compound: Cc1ccccc1C(=O)O [0-toluic acid]
solubility in methanol ([2]; 20° C.): 20 wt % dissolved at 20 °C

Compound: O=C(O)C(O)c1ccccc1 (stereo not drawn) [dl mandelic acid]
solubility in water ([3]; 30° C.): 37.5 g is dissolved in water 100 g

The next lines start with results.

solubility in water ([3]; 20° C.): 20 wt % dissolved at 20 °C | solubility in methanol ([2]; 20° C.): 20 wt % dissolved at 20 °C
Compound: C=CCC(C(=O)O)C(=O)O [allylic malonic acid]

solubility in methanol ([2]; 20° C.): 20 wt % dissolved at 20 °C
Compound: O=C(O)CCCCCC(=O)O [pimelic acid]

solubility in methanol ([2]; 20° C.): 20 wt % dissolved at 20 °C
Compound: O=C(O)CCCCCCCC(=O)O [azelaic acid]

solubility in water ([3]; 30° C.): 88 g is dissolved in water 100 g at
Compound: O=C(O)/C=C\C(=O)O [maleic acid]
solubility in methanol ([2]; 30° C.): 70 g is dissolved in g is dissolved in methanol 100 g

Viscosity [7]: 1500 mPa.s | Viscosity ([7]; undiluted): 1500 centipoises | thermal decomposition finishes at (perfectly decomposed into CO2 and H2O) [8]: 250 °C
Compound: OCC(O)CO [glycerin]

solubility in water ([3]; 20° C.): 20 wt % dissolved at 20 °C | solubility in methanol ([2]; 20° C.): 20 wt % dissolved at 20 °C
Compound: CC(=O)CC(=O)O [acetoacetic acid]

Viscosity [7]: 120 mPa.s | thermal decomposition finishes at (perfectly decomposed into CO2 and H2O) [8]: 320 °C
Compound: OCC(O)COCC(O)CO (stereo not drawn) [diglycerin]

solubility in water ([3]; 20° C.): 20 wt % dissolved at 20 °C | solubility in methanol ([2]; 20° C.): 20 wt % dissolved at 20 °C
Compound: CC(=O)CCC(=O)O [levulinic acid]

solubility in water [3]: Dissolved at arbitrary ratio
Compound: C=C(C)C(=O)O [methacrylic acid]

solubility in methanol ([2]; 20° C.): 20 wt % dissolved at 20 °C
Compound: O=C(O)CCCCCCC(=O)O [suberic acid]
